Test results reported in patent publication US20100197757A1, “OXINDOLES AS KINASE INHIBITORS” (priority 2005, published 2010).

Test system: MEK
Test: IC50 column of the compound table in Example 1 (assay not given)

Structure (SMILES)	IC50 [nM]
N/C(=C1\C(=O)Nc2cc(Cl)ccc21)c1ccc(I)cc1 [No. e, 3-(Amino-(4-iodo-phenyl)-methylene)-6-chloro-1,3-dihydro-indol-2-one]	4100
N/C(=C1\C(=O)Nc2ccc(Br)cc21)c1cccc(I)c1 [No. n, 3-(Amino-(3-iodo-phenyl)-methylene)-5-bromo-1,3-dihydro-indol-2-one]	3400
COc1ccc(/C(N)=C2/C(=O)Nc3ccccc32)cc1 [No. o, 3-[Amino-(4-methoxy-phenyl)methylene]-1,3-dihydro-indol-2-one]	3100
COc1ccc(/C(N)=C2/C(=O)Nc3cc(Cl)ccc32)cc1 [No. p, 3-(Amino-(4-methoxy-phenyl)-methylene)-6-chloro-1,3-dihydro-indol-2-one]	8700

Now those with a lower IC50, led by results:

IC50 [nM]	Structure (SMILES)
1100	N/C(=C1\C(=O)Nc2cc(Cl)ccc21)c1ccccc1 [No. a, 3-(Amino-phenyl-methylene)-6-chloro-1,3-dihydro-indol-2-one]
260	N/C(=C1\C(=O)Nc2ccc(Cl)cc21)c1ccccc1 [No. b, 3-(Amino-phenyl-methylene)-5-chloro-1,3-dihydro-indol-2-one]
940	N/C(=C1\C(=O)Nc2ccccc21)c1ccc(O)cc1 [No. c, 3-[Amino-(4-hydroxy-phenyl)-methylene]-1,3-dihydro-indol-2-one]
2700	N/C(=C1\C(=O)Nc2ccccc21)c1ccc(I)cc1 [No. d, 3-[Amino-(4-iodo-phenyl)-methylene]-1,3-dihydro-indol-2-one]
1100	N/C(=C1\C(=O)Nc2ccc(Cl)cc21)c1ccc(I)cc1 [No. f, 3-(Amino-(4-iodo-phenyl)-methylene)-5-chloro-1,3-dihydro-indol-2-one]
